Measured values taken from paper PMC12670396, “Crizotinib- or Ceritinib-Conjugated Platinum(IV) Prodrugs As Potent Multiaction Agents Inducing Antiproliferative Effects in 2D and 3D Cancer Cell Models” (Journal of Medicinal Chemistry, 2025).

Key:
ALK = biological target: T1, ALK (Homo sapiens, UniProt Q9HC35+Q9UM73); assay: Western blot of ALK phosphorylation state; assay type: cell-based; conditions: NCI-H2228 lysates, IC50 concentrations, 24 h
T1 construct: Western blot detection of the ALK phosphorylation state in lysates of NCI-H2228 cells exposed to the tested compounds; endogenous in cells; host or cells: NCI-H2228
Method: (§1) Whereas the signals of pALK and pMET are decreased in the presence of the tested compounds, the overall amount of ALK and MET is not markedly changed.
(§2) NCI-H2228 cells were seeded in 6-well plates at a density of 2 × 10^5 cells/well and incubated overnight. […] The cells were then harvested and lysed using RIPA lysis buffer supplemented with protease and phosphatase inhibitors as recommended by the manufacturer. Protein extracts were resolved with SDS-PAGE, transferred to a PVDF membrane, and the respective proteins were detected with specific antibodies (anti-phosphoALK, anti-ALK, anti-phosphoMET, anti-MET, and anti-GADPH) and HRP-conjugated secondary antibodies. The signals were obtained with SignalFire ECL Reagent and recorded with an Amersham680 reader.

MET = biological target: T2, MET (Homo sapiens, UniProt P08581); assay: Western blot of MET phosphorylation state; assay type: cell-based; conditions: NCI-H2228 lysates, IC50 concentrations, 24 h
T2 construct: Western blot analysis of the phosphorylation state of ALK and MET; endogenous in cells; host or cells: NCI-H2228
Method: as §1, §2

RD = assay: MTT cytotoxic/antiproliferative activity, 72 h; assay type: cell-based, human; conditions: for IC50: MTT, 72 h
CT26 or NCI-H2228 cells = assay: Release of ATP (CLSII bioluminescence assay); assay type: cell-based; conditions: IC50 concentrations, 20 h
Method: ATP release was analyzed using the CLSII bioluminescence assay kit (Roche) after treatment of CT26 or NCI-H2228 cells with the tested compounds at concentrations corresponding to their respective IC50 values (Figure A).
CT26 and NCI-H2228 cells were seeded in 48-well plates at a density of 5 × 10^4 cells/well and grown overnight. […] Then 50 μL of supernatant from the wells was transferred into a 96-well white plate (Corning) and processed using an ATP bioluminescence assay kit CLSII following the manufacturer’s instructions. Luminescence was measured with a SPARK multimode reader (TECAN).

NCI-H2228 cells = assay: Cell cycle distribution (PI, flow cytometry); assay type: cell-based, human; conditions: NCI-H2228, 2 × IC50, 48 h
Method: The alterations in cell cycle profiles caused by the tested agents in NCI-H2228 cells may offer insight into their anticancer mechanism. To examine these changes, we utilized flow cytometry to analyze the cells treated with the representative agents (Figure and Figure S40).
It appears that the G2/M arrest is a common phenomenon in the crizotinib-containing group of NCI-H2228 cells under the conditions used.
Following 48 h of incubation, the cells were harvested and fixed with 70% ethanol. The next day, the cells were washed with PBS (2×) and stained with propidium iodide (PI) (50 μg mL^–1 with 100 μg mL^–1 RNase A) in Vindel’s solution (10 mM Tris-Cl (pH = 8.0), 10 mM NaCl, 0.1% Triton X-100) for 30 min at 37 °C. Cell cycle distribution was analyzed using flow cytometry (FACS Verse), 3 × 10^4 cells were analyzed following the exclusion of cell aggregates, and the data was analyzed with FCS Express 7 (DeNovo software, Glendale, CA). The results are expressed as MEAN from two experiments.

[1] = Stability in RPMI cell culture medium with serum (HPLC); conditions: serum
Method: Two conditions must be met for Pt(IV) complexes to serve as true prodrugs: they must remain stable in biological fluids and should be activated by reduction within the cancer cells to release the bioactive components in their active form, thereby facilitating the rapid onset of cytotoxic effects. […] The reduction in the area of the HPLC peak of the compounds was monitored as a function of time, and their half-lives were calculated (Table and Figures S26,S27).
The stock solutions were prepared by dissolving the compounds in a 1:9 (v/v) mixture of DMSO and RPMI media. After preparation, the samples were injected and stored at 37 °C throughout the experiment. The final concentration of the complexes used for the experiment is 50–60 μM.

[2] = Reduction by L-ascorbic acid in phosphate buffer (RP-HPLC); assay type: physicochemical
Method: The reduction of Pt(IV) complexes was performed by reacting with 10 equiv of L-ascorbic acid in 10% DMSO in 100 mM phosphate buffer (pH 7.4) at 37 °C, and was monitored by reverse-phase analytical HPLC. The half-lives for the reduction were calculated from the decreasing peak areas as a function of time.
The reduction of the Pt(IV) complexes was performed in the presence of 10 equiv of L-ascorbic acid (AA) in phosphate buffer (100 mM, pH 7.4) at 37 °C using reverse-phase analytical HPLC. […] The platinum complexes were dissolved in 10% DMSO with 50% MeOH and added to 100 mM phosphate buffer (pH 7.4). […] The samples were injected and stored at 37 °C throughout the experiment.

[3] = test system: hepatocyte-like cells (HLC); assay: Cytotoxicity in hepatocyte-like cells, sulphorhodamine B assay; assay type: cell-based; conditions: hepatocyte-like cells from human pluripotent cells
Method: Growth inhibition activity in cancer cell lines was compared with the activity to inhibit the proliferation of normal (noncancerous) cells, namely MRC-5, IMR-90, hTERT-HPNE, and MCF10A cells. Selectivity indexes (SI) were calculated as (IC50 in noncancerous cells)/(average IC50 in cancer cells). […] We further assessed the toxicity of several of the compounds in hepatocyte-like cells (HLC) generated from human pluripotent cells.
Cytotoxicity in hepatocyte-like cells (HLC). STEMdiff Hepatocyte Kit was used to generate HLC from human pluripotent stem cells. Cytotoxicity of several of the tested compounds in HLC was evaluated using the sulphorhodamine B assay.

CT26 cells = assay: Phagocytosis of treated CT26 cells by J774.A1 macrophages; assay type: cell-based, murine; conditions: CT26 treated at IC50 for 24 h, cocultivated 4 h, J774.A1:CT26 1:2
Method: Then, the cells in the samples were stained with CellTracker (red CMTPX; Thermo Fisher Scientific). At the same time, J774.A1 macrophages were stained with CellTracker (green CMFDA; ThermoFisher Scientific). […] Following the coincubation, the cells were harvested and analyzed with flow cytometry (BD FACS Verse). Total cell count was normalized to 3 × 10^4 macrophages. The data were analyzed with FCS Express 7 (DeNovo software; Glendale, CA).

T1 sequence (Q9HC35+Q9UM73 fused): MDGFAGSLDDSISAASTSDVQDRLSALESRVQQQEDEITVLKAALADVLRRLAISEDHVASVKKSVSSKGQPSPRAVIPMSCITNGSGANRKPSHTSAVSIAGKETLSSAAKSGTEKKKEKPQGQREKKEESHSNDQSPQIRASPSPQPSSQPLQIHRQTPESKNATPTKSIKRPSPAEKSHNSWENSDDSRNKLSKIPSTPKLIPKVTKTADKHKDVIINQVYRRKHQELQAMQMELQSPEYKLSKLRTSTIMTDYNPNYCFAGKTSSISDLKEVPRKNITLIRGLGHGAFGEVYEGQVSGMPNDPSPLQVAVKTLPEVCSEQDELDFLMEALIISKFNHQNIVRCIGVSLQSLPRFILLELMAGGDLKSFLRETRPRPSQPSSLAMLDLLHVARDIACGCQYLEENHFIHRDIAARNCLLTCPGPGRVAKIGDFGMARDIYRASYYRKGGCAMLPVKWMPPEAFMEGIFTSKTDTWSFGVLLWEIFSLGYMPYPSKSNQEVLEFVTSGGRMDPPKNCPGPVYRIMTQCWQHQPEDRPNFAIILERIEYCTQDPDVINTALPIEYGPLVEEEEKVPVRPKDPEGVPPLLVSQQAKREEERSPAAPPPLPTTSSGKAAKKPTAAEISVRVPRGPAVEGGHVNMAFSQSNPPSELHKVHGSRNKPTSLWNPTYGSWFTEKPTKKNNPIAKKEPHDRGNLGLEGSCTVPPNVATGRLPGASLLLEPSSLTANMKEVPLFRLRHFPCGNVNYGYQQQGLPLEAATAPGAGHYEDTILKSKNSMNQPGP
T2 sequence (P08581 25-1390): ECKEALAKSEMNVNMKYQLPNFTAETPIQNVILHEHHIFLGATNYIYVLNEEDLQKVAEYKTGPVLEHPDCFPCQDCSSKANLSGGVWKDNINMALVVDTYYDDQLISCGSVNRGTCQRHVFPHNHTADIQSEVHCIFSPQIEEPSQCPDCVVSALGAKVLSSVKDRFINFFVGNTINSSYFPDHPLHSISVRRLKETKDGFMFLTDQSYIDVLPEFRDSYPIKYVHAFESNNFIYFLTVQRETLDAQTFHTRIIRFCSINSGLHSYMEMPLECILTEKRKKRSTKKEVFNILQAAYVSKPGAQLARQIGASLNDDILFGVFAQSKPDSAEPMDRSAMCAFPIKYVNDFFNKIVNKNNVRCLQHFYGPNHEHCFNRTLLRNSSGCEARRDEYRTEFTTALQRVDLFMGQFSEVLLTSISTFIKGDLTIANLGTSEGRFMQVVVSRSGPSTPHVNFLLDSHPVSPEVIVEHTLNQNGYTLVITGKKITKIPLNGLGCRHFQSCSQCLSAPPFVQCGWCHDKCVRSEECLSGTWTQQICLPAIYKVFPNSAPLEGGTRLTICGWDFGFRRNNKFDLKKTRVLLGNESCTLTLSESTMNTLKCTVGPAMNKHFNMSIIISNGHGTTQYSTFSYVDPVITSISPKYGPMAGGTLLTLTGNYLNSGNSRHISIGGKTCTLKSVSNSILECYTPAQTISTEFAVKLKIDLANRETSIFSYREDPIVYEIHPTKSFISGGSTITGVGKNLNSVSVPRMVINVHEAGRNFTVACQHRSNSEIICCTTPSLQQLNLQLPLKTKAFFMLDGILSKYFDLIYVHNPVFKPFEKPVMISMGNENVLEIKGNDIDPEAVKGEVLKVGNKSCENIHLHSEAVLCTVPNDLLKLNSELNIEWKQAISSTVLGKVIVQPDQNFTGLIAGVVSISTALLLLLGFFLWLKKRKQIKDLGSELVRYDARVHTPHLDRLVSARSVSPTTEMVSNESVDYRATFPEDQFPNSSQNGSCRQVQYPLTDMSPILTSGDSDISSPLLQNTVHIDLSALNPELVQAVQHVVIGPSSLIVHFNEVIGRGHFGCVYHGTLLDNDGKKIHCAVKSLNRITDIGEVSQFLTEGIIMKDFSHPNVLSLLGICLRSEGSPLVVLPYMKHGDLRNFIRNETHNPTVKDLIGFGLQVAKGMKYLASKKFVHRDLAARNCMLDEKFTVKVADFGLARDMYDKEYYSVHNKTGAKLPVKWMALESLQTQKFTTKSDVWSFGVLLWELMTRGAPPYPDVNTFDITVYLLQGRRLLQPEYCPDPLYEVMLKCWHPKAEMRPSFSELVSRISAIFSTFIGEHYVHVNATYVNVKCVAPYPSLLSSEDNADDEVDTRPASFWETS

| Compound | phosphorylation of ALK (ALK) | phosphorylation of MET (MET) | IC50 (RD) [µM] | ATP released to the medium relative to nontreated cells (CT26 or NCI-H2228 cells) | cell cycle arrest (NCI-H2228 cells) | stability half-life (t 1/2) [1] [h] | reduction half-life (t 1/2) ([2]; 10 equiv L-ascorbic acid, 10% DMSO in 100 mM phosphate buffer pH 7.4, 37 °C) [h] | IC50 [3] [µM] | double-stained (phagocytotic) population (CT26 cells) | solubility in phosphate buffer ([2]; 100 mM phosphate buffer pH 7.4) | IC50(MIX)/IC50(complex) (RD; MIX3/3 or MIX7/7) |
| --- | --- | --- | --- | --- | --- | --- | --- | --- | --- | --- | --- |
| N.N.[Cl][Pt][Cl] [cisPt, cisplatin, reference compound] | no visible effect | no visible effect | 7.3 ± 0.2 | did not induce a significant release of ATP |  |  |  |  |  |  |  |
| CC(Oc1cc(-c2cnn(C3CCN(C(=O)[O][Pt]([Cl])([Cl])[O]C(=O)CCCc4ccccc4)CC3)c2)cnc1N)c1c(Cl)ccc(F)c1Cl.N.N (centres unmarked) [compound 3, ctc-[Pt(NH3)2(crizotinib)(PhB)Cl2]] |  |  | 0.54 ± 0.07 |  | induced arrest in the G2/M phase | 42 | 7.7 | 5 ± 1 | significantly increased |  |  |
| Cc1cc(Nc2ncc(Cl)c(Nc3ccccc3S(=O)(=O)C(C)C)n2)c(OC(C)C)cc1C1CCN(C(=O)[O][Pt]([Cl])([Cl])[O]C(=O)CCCc2ccccc2)CC1.N.N [compound 7, ctc-[Pt(NH3)2(ceritinib)(PhB)Cl2]] | inhibit the phosphorylation | inhibit the phosphorylation | 0.35 ± 0.03 | 2.7 fold | majority of the population in cells treated with 7 was in the S phase | 37 |  | 4 ± 1 | significantly increased | poor solubility | 1.7 |
